Like-named read-outs stand apart in the source and are kept apart here.
What was measured:
Mcm467 [1] = target: T1, Mcm467 (Saccharomyces cerevisiae, UniProt P30665+P38132+P53091); experiment: ssDNA double filter-binding assay, Mcm467; conditions: 1 mM compound, 150 nM helicase
T1 construct: made in house; host or cells: baculovirus-infected insect cells

Mcm2-7 [2] = tested on: T2, Mcm2-7; experiment: ssDNA double filter-binding assay, Mcm2-7; set-up: species or system Saccharomyces cerevisiae; conditions: 1 mM compound, 150 nM helicase
T2 construct: made in house; host or cells: baculovirus-infected insect cells

pUC19 = experiment: DNA intercalation assay (Topo I-relaxed plasmid); assay type: biochemical
Text: To examine this model, we tested our inhibitors in a standard topoisomerase assay. The rationale of this assay is that intercalating compounds will introduce supercoils into a fully relaxed plasmid. Topo I will remove these introduced supercoils, but after quenching and gel electrophoresis the intercalator will diffuse away and produce a detectable compensatory supercoiling increase.

[3] = target: SV40 large TAg (T-antigen) (Simian virus 40, UniProt P03070); experiment: biochemical; set-up: species or system SV40 (simian virus 40); conditions: for IC50: DNA unwinding
T4 gp41 = target: T3, T4 gp41 (Enterobacteria phage T4, UniProt P04530); experiment: T4 gp41 helicase assay; assay type: biochemical; conditions: 1 mM, Figure S3
T3 sequence (P04530 1-475): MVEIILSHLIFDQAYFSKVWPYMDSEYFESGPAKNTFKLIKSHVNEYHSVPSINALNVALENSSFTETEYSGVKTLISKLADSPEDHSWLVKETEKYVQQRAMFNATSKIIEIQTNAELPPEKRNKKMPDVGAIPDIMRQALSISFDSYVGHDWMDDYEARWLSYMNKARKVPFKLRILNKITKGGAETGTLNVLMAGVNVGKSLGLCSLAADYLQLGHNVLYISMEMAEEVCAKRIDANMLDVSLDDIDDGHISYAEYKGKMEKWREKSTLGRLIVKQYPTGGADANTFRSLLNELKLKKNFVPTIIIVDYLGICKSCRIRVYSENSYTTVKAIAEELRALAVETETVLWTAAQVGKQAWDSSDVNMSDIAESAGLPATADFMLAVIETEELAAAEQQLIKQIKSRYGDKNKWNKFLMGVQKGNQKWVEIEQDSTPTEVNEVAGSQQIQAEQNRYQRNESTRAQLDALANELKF
Description: (§1) Helicase assays were performed essentially as described. Synthetic replication forks were prepared by annealing oligos 233 and 235 [IDT (Coralville), oligo 233 5′(T)40[…]; oligo 235 5′ […](T)40] and then filling in the recessed 3′-end with [α32P]dATP and unlabelled dNTPs using Klenow Fragment. Briefly, reactions ([…]) were performed in 1× helicase assay buffer [20 mM Tris/HCl (pH 7.5), 10 mM MgOAc, 20% (v/v) glycerol, 100 μM EDTA and 5 mM DTT (dithiothreitol)] and contained a final concentration of 1 nM fork substrate, 5 mM ATP, 40 mM creatine phosphate, […] creatine kinase, 33 μg/ml BSA. Reactions containing Mcm2-7 and Mcm467 were supplemented with 200 mM potassium glutamate. Reactions containing SsoMcm were incubated at 65°C, those containing T4 gp41 were incubated for 30 min at 37°C, and all other reactions were incubated at 37°C for 1 h. The products were separated by 10% (w/v) native PAGE, the resulting gels dried and the radioactivity quantified using a Fuji FLA-5100 phosphoimager. Irrespective of the protein used, all helicase assays contained equal molar helicase concentrations (100 nM, assuming in all cases that the active helicase form is hexameric). Steady-state ATP hydrolysis was assayed as published. In short, reactions were set up essentially as in the helicase assay, with minor exceptions. A non-radiolabelled DNA fork was used, helicase concentration was 100 nM (hexamer) the total ATP concentration was 500 μM and included ~0.5 μCi of [α32P]ATP, and the ATP regeneration system was omitted. Reactions were incubated for 1 h at 37°C and stopped by the addition of SDS. ATP was separated from ADP by PEI (polyethyleneimine) thin layer chromatography, and the ratio of ATP:ADP was quantified using a Fuji FLA-5100 phosphoimager. Based on our prior work, conditions were established to ensure that the results shown are within the linear range of the assay. Protein–ssDNA binding was determined with a double filter-binding assay using an ssDNA probe (oligo 826, 5′[…]) that was 5′-radiolabelled using T4 polynucleotide kinase and [γ32P]ATP [16]. For the double filter-binding assay, the helicase concentration was 150 nM (hexamer) and the ssDNA concentration was 4 nM. For all biochemical assays, helicases were preincubated with inhibitors for 20 min at 37°C unless otherwise indicated. […]
(§2) against different helicases
(§3) Representative helicase activity assays in the presence of the indicated inhibitor were tested, quantiﬁed and standardized as described in the legend to F igures 2 (A) and (B). All helicases were assayed at 100 nM
(§4) ﬁnal concentration (hexamer) with inhibitor preincubation prior to ATP […]
(§5) F igure S3 Ciproﬂoxacin poor ly inhibits hexameric helicases un- […]
(§6) All inhibitors were used at 1 mM ﬁnal concentration. […]

RPE-hTERT cells = experiment: Human cell viability, MTS method; assay type: cell-based; conditions: 48 h, value (95% CI)
Description: Ciproﬂoxacin is an inhibitor of the Mcm2-7 […]
The viability of human cells was assayed using the MTS method
[1]. Brieﬂy, 1 ×10^5 cells of the human non-tumour cell line RPE-hTERT were plated into each well of a 96-well plate and grown in DMEM: F12 containing 10 % (v/v) FBS in 5 % (v/v) CO2 at 37 ◦ C. The next day, the indicated compounds were titrated into media such that the ﬁnal concentration contained 1 % (v/v)
DMSO. As a negative control, media were also prepared that contained 1 % DMSO but lacked compound. After 48 h, the media was removed and replaced with DMEM lacking phenol red but containing Cell Titer 96 Aqueous One Solution Cell Proliferation
Assay (Promega). After 1 h, the A490 nm was measured using a BioRad iMark Microplate Reader (Hercules). Final data reﬂect the average and standard deviation (S.D.) of three replicates at each compound concentration. […]

DnaB = DnaB (Escherichia coli, UniProt P0ACB0); experiment: DnaB helicase assay; assay type: biochemical; conditions: 1 mM, Figure S3
Description: as §1, §2, §3, §4, §5, §6

Mcm467 [4] = target: T1, Mcm467; experiment: Mcm467 helicase (DNA unwinding) assay; assay type: biochemical
Mcm2-7 [5] = target: T2, Mcm2-7; experiment: Mcm2-7 helicase (DNA unwinding) assay; assay type: biochemical, Saccharomyces cerevisiae; conditions: for IC50: DNA unwinding
[6] = tested on: S. cerevisiae ∆erg6 (UPY675); experiment: Yeast growth inhibition, 96-well assay, ∆erg6 strain; assay type: cell-based, Saccharomyces cerevisiae; conditions: for IC50: Saccharomyces cerevisiae, ∆erg6 strain, growth over 24 h, read-out: IC50 Yeast
Mcm2-7 [7] = tested on: T2, Mcm2-7; experiment: Steady-state ATP hydrolysis by Mcm2-7; assay type: biochemical, Saccharomyces cerevisiae; conditions: 1 mM compound, 100 nM hexamer
SV40 large TAg = target: T4, SV40 large TAg (Simian virus 40, UniProt P03070); experiment: Steady-state ATP hydrolysis by TAg; assay type: biochemical, SV40 (simian virus 40); conditions: 1 mM compound, 100 nM hexamer
T4 construct: made in house

Mcm467 [8] = target: T1, Mcm467; experiment: Steady-state ATP hydrolysis by Mcm467; assay type: biochemical; conditions: 1 mM compound, 100 nM hexamer
[9] = target: T5, SsoMcm (Sulfolobus solfataricus Mcm protein) complex (Saccharolobus solfataricus, UniProt Q9UXG1); experiment: SsoMcm helicase assay; assay type: biochemical; conditions: 1 mM, 65°C, Figure S3
T5 sequence (Q9UXG1 1-686): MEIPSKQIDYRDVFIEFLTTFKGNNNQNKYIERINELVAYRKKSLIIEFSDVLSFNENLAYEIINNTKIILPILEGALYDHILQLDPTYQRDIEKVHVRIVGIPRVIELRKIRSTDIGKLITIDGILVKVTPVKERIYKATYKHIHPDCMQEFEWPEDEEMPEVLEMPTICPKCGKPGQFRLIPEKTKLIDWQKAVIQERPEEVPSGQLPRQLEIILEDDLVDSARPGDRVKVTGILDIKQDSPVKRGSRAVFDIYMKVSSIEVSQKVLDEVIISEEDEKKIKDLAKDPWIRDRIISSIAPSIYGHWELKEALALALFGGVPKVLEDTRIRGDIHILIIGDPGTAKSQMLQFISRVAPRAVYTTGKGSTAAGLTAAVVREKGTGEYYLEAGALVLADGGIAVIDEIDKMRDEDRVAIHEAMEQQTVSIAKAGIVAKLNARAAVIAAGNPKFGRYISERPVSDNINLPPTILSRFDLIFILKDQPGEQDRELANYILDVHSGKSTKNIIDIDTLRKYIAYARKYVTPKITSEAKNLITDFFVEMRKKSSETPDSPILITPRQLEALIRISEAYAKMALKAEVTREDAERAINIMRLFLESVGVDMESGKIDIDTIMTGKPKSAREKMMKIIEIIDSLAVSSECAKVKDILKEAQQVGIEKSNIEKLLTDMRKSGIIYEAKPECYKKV
Description: Helicase assays were performed essentially as described. Synthetic replication forks were prepared by annealing oligos 233 and 235 [IDT (Coralville), oligo 233 5′(T)40[…]; oligo 235 5′ […](T)40] and then filling in the recessed 3′-end with [α32P]dATP and unlabelled dNTPs using Klenow Fragment. Briefly, reactions ([…]) were performed in 1× helicase assay buffer [20 mM Tris/HCl (pH 7.5), 10 mM MgOAc, 20% (v/v) glycerol, 100 μM EDTA and 5 mM DTT (dithiothreitol)] and contained a final concentration of 1 nM fork substrate, 5 mM ATP, 40 mM creatine phosphate, […] creatine kinase, 33 μg/ml BSA. Reactions containing Mcm2-7 and Mcm467 were supplemented with 200 mM potassium glutamate. Reactions containing SsoMcm were incubated at 65°C, those containing T4 gp41 were incubated for 30 min at 37°C, and all other reactions were incubated at 37°C for 1 h. The products were separated by 10% (w/v) native PAGE, the resulting gels dried and the radioactivity quantified using a Fuji FLA-5100 phosphoimager. […] ATP was separated from ADP by PEI (polyethyleneimine) thin layer chromatography, and the ratio of ATP:ADP was quantified using a Fuji FLA-5100 phosphoimager. […] Protein–ssDNA binding was determined with a double filter-binding assay using an ssDNA probe (oligo 826, 5′[…]) that was 5′-radiolabelled using T4 polynucleotide kinase and [γ32P]ATP [16]. […]

[10] = 1 mM inhibitor added after plasmid relaxation (Figure 3C)
[11] = inhibitor at 2- to 3-fold over calculated helicase IC50 (Figure 3E)
[12] = 100 nM hexamer, inhibitor preincubation, […], read-out: IC50 T-antigen
[13] = DNA unwinding, 100 nM hexamer, inhibitor preincubation, value (95% CI), read-out: IC50 Mcm467
[14] = 100 nM hexamer, inhibitor preincubation, value (95% CI), read-out: IC50 Mcm2-7
[15] = any concentration tested, results not shown

T1 sequence (P30665 whole entry): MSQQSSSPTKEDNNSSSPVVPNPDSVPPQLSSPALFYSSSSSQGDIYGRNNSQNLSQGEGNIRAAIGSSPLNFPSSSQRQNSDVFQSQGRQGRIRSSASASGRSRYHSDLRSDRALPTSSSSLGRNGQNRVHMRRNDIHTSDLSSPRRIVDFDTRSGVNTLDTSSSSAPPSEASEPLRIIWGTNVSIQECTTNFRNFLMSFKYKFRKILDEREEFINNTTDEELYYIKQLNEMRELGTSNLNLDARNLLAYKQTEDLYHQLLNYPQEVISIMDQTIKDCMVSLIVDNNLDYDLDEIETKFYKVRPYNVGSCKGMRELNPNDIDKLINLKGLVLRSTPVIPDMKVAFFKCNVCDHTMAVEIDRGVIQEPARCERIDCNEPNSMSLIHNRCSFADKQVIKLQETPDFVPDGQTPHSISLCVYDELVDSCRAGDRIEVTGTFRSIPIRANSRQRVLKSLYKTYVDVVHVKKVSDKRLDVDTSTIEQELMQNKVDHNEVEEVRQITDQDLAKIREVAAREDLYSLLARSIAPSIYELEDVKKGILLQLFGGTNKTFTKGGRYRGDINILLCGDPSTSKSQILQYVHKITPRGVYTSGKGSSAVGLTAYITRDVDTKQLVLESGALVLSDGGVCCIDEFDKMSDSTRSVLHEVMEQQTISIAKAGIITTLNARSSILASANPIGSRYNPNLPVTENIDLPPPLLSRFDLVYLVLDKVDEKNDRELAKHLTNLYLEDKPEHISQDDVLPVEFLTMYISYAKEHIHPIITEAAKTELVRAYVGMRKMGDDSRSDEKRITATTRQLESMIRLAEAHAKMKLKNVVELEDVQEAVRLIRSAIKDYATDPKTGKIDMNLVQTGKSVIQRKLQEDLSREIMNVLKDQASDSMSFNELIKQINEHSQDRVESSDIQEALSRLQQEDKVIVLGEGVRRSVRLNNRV
T1 sequence (P53091 whole entry): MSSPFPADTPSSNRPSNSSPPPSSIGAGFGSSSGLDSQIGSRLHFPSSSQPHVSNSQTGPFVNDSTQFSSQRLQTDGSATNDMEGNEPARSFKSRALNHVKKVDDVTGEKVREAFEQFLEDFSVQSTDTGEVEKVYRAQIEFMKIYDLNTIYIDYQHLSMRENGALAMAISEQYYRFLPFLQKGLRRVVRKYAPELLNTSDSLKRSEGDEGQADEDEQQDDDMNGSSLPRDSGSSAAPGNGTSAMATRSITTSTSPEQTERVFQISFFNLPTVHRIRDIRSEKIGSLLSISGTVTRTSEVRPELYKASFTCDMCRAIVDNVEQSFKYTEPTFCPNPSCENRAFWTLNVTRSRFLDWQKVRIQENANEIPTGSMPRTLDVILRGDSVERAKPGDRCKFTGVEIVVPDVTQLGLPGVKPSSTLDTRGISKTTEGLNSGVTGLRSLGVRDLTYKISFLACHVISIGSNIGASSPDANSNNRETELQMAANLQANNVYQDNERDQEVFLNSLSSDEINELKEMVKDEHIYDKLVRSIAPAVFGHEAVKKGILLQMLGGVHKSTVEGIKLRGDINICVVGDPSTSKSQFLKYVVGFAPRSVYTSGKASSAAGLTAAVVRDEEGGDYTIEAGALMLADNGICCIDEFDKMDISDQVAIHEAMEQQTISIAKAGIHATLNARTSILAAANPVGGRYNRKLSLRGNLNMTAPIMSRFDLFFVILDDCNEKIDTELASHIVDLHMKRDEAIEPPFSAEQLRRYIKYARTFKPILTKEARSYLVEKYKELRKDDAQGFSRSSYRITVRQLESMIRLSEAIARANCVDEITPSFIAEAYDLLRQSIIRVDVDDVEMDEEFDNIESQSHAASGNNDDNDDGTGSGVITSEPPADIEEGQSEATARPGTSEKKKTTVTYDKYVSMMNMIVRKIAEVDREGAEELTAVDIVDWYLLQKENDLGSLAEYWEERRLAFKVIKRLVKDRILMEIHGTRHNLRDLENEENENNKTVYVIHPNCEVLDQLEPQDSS
T1 sequence (P38132 whole entry): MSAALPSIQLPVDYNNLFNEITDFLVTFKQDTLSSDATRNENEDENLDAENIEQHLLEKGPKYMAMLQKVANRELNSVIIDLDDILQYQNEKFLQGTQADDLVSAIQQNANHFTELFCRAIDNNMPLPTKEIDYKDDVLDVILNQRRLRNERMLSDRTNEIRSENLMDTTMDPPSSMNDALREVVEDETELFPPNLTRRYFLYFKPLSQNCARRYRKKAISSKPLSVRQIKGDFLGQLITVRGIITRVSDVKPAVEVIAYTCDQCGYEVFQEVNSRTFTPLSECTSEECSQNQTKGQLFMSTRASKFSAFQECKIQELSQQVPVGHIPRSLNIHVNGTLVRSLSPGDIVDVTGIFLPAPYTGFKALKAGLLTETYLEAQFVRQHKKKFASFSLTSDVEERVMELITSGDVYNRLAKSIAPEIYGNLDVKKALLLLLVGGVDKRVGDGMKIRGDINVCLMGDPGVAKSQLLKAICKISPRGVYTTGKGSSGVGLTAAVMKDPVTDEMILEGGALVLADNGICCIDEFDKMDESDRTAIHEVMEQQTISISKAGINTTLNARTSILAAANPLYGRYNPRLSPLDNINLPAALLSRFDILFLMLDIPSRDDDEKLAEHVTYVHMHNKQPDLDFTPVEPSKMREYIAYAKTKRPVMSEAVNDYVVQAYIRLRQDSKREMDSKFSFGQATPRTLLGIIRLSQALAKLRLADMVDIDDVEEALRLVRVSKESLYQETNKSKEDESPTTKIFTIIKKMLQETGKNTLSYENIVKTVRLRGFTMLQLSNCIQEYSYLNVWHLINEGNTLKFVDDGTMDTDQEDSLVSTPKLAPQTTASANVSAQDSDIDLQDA
Chain of SV40 large TAg (T-antigen) (P03070 whole entry, looked up): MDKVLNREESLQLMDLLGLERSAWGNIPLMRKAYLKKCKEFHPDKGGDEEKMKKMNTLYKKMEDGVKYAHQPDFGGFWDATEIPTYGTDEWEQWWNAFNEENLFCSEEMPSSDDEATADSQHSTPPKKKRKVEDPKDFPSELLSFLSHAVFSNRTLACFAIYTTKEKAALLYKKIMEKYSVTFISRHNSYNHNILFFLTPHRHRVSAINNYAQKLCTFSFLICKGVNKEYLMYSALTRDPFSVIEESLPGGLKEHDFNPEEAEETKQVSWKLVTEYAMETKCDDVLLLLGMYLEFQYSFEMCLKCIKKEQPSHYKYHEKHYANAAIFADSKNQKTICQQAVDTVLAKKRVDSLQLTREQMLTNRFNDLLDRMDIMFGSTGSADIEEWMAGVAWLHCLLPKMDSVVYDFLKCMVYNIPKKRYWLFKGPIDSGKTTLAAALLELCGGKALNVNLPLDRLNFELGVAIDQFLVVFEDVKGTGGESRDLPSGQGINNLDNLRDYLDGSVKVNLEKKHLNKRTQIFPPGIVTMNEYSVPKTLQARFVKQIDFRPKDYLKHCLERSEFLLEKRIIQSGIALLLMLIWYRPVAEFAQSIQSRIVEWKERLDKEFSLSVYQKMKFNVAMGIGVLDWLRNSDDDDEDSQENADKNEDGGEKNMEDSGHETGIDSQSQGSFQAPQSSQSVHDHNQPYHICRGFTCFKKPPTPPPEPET
Chain of DnaB (P0ACB0 whole entry): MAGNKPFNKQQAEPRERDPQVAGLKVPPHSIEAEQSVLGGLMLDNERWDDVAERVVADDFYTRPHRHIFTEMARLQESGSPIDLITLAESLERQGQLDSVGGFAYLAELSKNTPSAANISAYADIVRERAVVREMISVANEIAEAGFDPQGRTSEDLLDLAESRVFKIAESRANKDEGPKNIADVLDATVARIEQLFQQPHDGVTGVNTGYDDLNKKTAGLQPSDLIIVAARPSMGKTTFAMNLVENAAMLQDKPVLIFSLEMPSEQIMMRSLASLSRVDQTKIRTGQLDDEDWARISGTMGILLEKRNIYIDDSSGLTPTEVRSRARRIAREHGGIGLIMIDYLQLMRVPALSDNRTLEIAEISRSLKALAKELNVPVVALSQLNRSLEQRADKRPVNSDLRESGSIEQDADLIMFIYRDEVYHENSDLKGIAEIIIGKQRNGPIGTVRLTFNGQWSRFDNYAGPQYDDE

Row | SMILES | DNA intercalation (pUC19; [10]) | IC50 [3, 12] [µM] | inhibition of T4 gp41 helicase (T4 gp41) | IC50 (RPE-hTERT cells; Homo sapiens) [µM] | inhibition of DnaB helicase (DnaB) | IC50 ([6]; value (95% CI)) [µM] | IC50 (Mcm467 [4]; [13]) [µM] | IC50 (Mcm2-7 [5]; [14]) [µM] | also measured
1 | CCN1C(=O)C=CC1=O [NEM, N-ethylmaleimide] | – | – | – | – | – | – | – | – | effect on ssDNA binding of Mcm467 (Mcm467 [1]): inhibit; effect on ssDNA binding of Mcm2-7 (Mcm2-7 [2]): inhibit
2 | Cc1c(F)c(N2CCC(N)C2)nc2c1c(=O)c(C(=O)O)cn2C1CC1 (stereo not drawn) [compound 125248] | extensive DNA intercalation | 190 | nearly complete inhibition | ~10 | nearly complete inhibition | 460 | – | – | DNA intercalation (pUC19; [11]): significant DNA intercalation; IC50 (RPE-hTERT cells): 14 µM; IC50 (Mcm467 [4]; IC50 Mcm467, DNA unwinding, 100 nM hexamer, inhibitor preincubation, value (95% CI)): 130 µM; IC50 (Mcm2-7 [5]; read-out: IC50 Mcm2-7, 100 nM hexamer, inhibitor preincubation, value (95% CI)): 72 µM
3 | NC1CCN(c2ccc3c(=O)c(C(=O)O)cn(-c4ccc(O)cc4)c3c2Cl)C1 (stereo not drawn) [compound 268973] | extensive DNA intercalation | 476 | nearly complete inhibition | – | nearly complete inhibition | 160 | 272 | 188 | effect on ATP hydrolysis of Mcm2-7 (Mcm2-7 [7]): modest inhibition; DNA intercalation (pUC19; [11]): significant DNA intercalation; effect on ATP hydrolysis of TAg (SV40 large TAg): modest inhibition; effect on ATP hydrolysis of Mcm467 (Mcm467 [8]): modest inhibition
4 | CSc1c(N2CCC(C(C)N)C2)ccc2c(=O)c(C(=O)O)cn(C3CC3)c12 (stereo not drawn) [compound 314850] | little or no intercalation | > 1000 | – | 500 to 700 | – | 520 | 707 | 261 | effect on ATP hydrolysis of Mcm2-7 (Mcm2-7 [7]): essentially no inhibition; IC50 (RPE-hTERT cells): 340 µM; effect on ATP hydrolysis of TAg (SV40 large TAg): essentially no inhibition; effect on ATP hydrolysis of Mcm467 (Mcm467 [8]): essentially no inhibition; inhibition of SsoMcm helicase [9]: effectively inhibited
5 | Cc1ccc(-c2cc(-c3ccccc3)nc(N3CCNCC3)n2)cc1 [compound 388612] | extensive DNA intercalation | 126 | – | – | – | – | 345 | 396 | IC50 ([6]; insufficient data for 95% CI): < 0.01 µM
6 | c1ccc(Nc2nc(Nc3ccccc3)nc(N3CCNCC3)n2)cc1 [compound 924384] | extensive DNA intercalation | 70 | nearly complete inhibition | ~10 | nearly complete inhibition | 93 | 246 | 115 | –
7 | CCn1cc(C(=O)O)c(=O)c2ccc(C)nc21 [naladixic acid, reference compound] | – | – | – | – | – | – | – | – | effect on TAg helicase activity [3, 15]: essentially no effect; effect on Mcm467 helicase activity (Mcm467 [4]; [15]): essentially no effect; effect on Mcm2-7 helicase activity (Mcm2-7 [5]; [15]): essentially no effect
8 | CC1COc2c(N3CCN(C)CC3)c(F)cc3c(=O)c(C(=O)O)cn1c23 (stereo not drawn) [ofloxacin, reference compound] | – | – | – | – | – | – | – | – | IC50 ([3]; 100 nM complex, read-out: IC50 TAg helicase activity): > 20000 µM; IC50 (Mcm467 [4]; DNA unwinding, 100 nM complex, read-out: IC50 Mcm467 helicase activity): 5290 µM; IC50 (Mcm2-7 [5]; 100 nM complex, read-out: IC50 Mcm2-7 helicase activity): 4170 µM; growth response of ∆erg6 yeast ([6]; Figure 4A): demonstrable growth sensitivity

Source: article PMC3791872 (Bioscience Reports, 2013)
